Test results reported in ChEMBL document CHEMBL1629662, “Antimicrobial activity of prulifloxacin tested against a worldwide collection of gastroenteritis-producing pathogens, including those causing traveler's diarrhea” (2009).
≈ marks a conversion by molar mass, not a printed value.

Tests used:
[1] = tested on: Campylobacter sp.; assay: Antibacterial activity against Campylobacter sp. assessed as growth inhibition at 1 ug/ml by broth microdilution method; assay type: functional
[2] = tested on: Escherichia coli; assay: Antibacterial activity against Escherichia coli assessed as percent susceptible isolates by broth microdilution method; assay type: functional
[3] = tested on: Salmonella typhimurium; assay: Antibacterial activity against Salmonella enterica serovar Typhimurium assessed as percent resistant isolates by broth microdilution method; assay type: functional, Salmonella enterica subsp. enterica serovar Typhimurium; settings: pooled result: one value given for 8 cell lines, strains, targets or settings
[4] = tested on: Shigella sonnei; assay: Antibacterial activity against Shigella sonnei assessed as percent resistant isolates by broth microdilution method; assay type: functional; settings: pooled result: one value given for 4 cell lines, strains, targets or settings
[5] = tested on: Shigella flexneri; assay: Antibacterial activity against Shigella flexneri by broth microdilution method; assay type: functional
[6] = tested on: Yersinia enterocolitica; assay: Antibacterial activity against Yersinia enterocolitica assessed as percent resistant isolates by broth microdilution method; assay type: functional
[7] = tested on: Yersinia pseudotuberculosis; assay: Antibacterial activity against Yersinia pseudotuberculosis assessed as percent susceptible isolates by broth microdilution method; assay type: functional
[8] = tested on: Aeromonas caviae; assay: Antibacterial activity against Aeromonas caviae assessed as percent resistant isolates by broth microdilution method; assay type: functional
[9] = tested on: Aeromonas veronii; assay: Antibacterial activity against Aeromonas veronii assessed as percent susceptible isolates by broth microdilution method; assay type: functional
[10] = tested on: Vibrio cholerae; assay: Antibacterial activity against Vibrio cholerae assessed as percent susceptible isolates by broth microdilution method; assay type: functional
[11] = tested on: Vibrio cholerae; assay: Antibacterial activity against Vibrio cholerae assessed as percent resistant isolates by broth microdilution method; assay type: functional
[12] = tested on: Vibrio alginolyticus; assay: Antibacterial activity against Vibrio alginolyticus assessed as percent susceptible isolates by broth microdilution method; assay type: functional
[13] = tested on: Vibrio alginolyticus; assay: Antibacterial activity against Vibrio alginolyticus assessed as percent resistant isolates by broth microdilution method; assay type: functional
[14] = tested on: Vibrio fluvialis; assay: Antibacterial activity against Vibrio fluvialis assessed as percent resistant isolates by broth microdilution method; assay type: functional
[15] = tested on: Vibrio vulnificus; assay: Antibacterial activity against Vibrio vulnificus assessed as percent susceptible isolates by broth microdilution method; assay type: functional
[16] = tested on: Vibrio sp.; assay: Antibacterial activity against Vibrio sp. assessed as percent susceptible isolates by broth microdilution method; assay type: functional
[17] = tested on: Campylobacter jejuni; assay: Antibacterial activity against Campylobacter jejuni assessed as percent resistant isolates by broth microdilution method; assay type: functional; settings: pooled result: one value given for 2 cell lines, strains, targets or settings
[18] = tested on: Escherichia coli; assay: Antibacterial activity against enteroaggregative Escherichia coli by broth microdilution method; assay type: functional
[19] = tested on: Escherichia coli; assay: Antibacterial activity against enteroaggregative Escherichia coli assessed as percent susceptible isolates by broth microdilution method; assay type: functional
[20] = tested on: Escherichia coli; assay: Antibacterial activity against Escherichia coli by broth microdilution method in presence of sulfamethoxazolee; assay type: functional
[21] = tested on: Escherichia coli; assay: Antibacterial activity against blood-borne Escherichia coli assessed as percent susceptible isolates by broth microdilution method; assay type: functional
[22] = tested on: Escherichia coli; assay: Antibacterial activity against Escherichia coli assessed as growth inhibition at =<0.002 ug/ml by broth microdilution method; assay type: functional
[23] = tested on: Escherichia coli; assay: Antibacterial activity against Escherichia coli assessed as growth inhibition at 0.06 ug/ml by broth microdilution method; assay type: functional
[24] = tested on: Escherichia coli; assay: Antibacterial activity against Escherichia coli assessed as growth inhibition at 0.12 ug/ml by broth microdilution method; assay type: functional
[25] = tested on: Escherichia coli; assay: Antibacterial activity against Escherichia coli assessed as growth inhibition at 0.5 ug/ml by broth microdilution method; assay type: functional
[26] = tested on: Escherichia coli; assay: Antibacterial activity against Escherichia coli assessed as growth inhibition at 1 ug/ml by broth microdilution method; assay type: functional
[27] = tested on: Escherichia coli; assay: Antibacterial activity against Escherichia coli assessed as growth inhibition at 2 ug/ml by broth microdilution method; assay type: functional
[28] = tested on: Shigella sp.; assay: Antibacterial activity against Shigella sp. assessed as growth inhibition at 0.004 ug/ml by broth microdilution method; assay type: functional
[29] = tested on: Shigella sp.; assay: Antibacterial activity against Shigella sp. assessed as growth inhibition at 0.016 ug/ml by broth microdilution method; assay type: functional
[30] = tested on: Shigella sp.; assay: Antibacterial activity against Shigella sp. assessed as growth inhibition at 0.06 ug/ml by broth microdilution method; assay type: functional
[31] = tested on: Shigella sp.; assay: Antibacterial activity against Shigella sp. assessed as growth inhibition at 0.12 ug/ml by broth microdilution method; assay type: functional
[32] = tested on: Yersinia sp.; assay: Antibacterial activity against Yersinia sp. assessed as growth inhibition at =<0.002 ug/ml by broth microdilution method; assay type: functional
[33] = tested on: Yersinia sp.; assay: Antibacterial activity against Yersinia sp. assessed as growth inhibition at 0.004 ug/ml by broth microdilution method; assay type: functional; settings: Yersinia sp. (in: enterobacteria)
[34] = tested on: Yersinia sp.; assay: Antibacterial activity against Yersinia sp. assessed as growth inhibition at 0.008 ug/ml by broth microdilution method; assay type: functional; settings: Yersinia sp. (in: enterobacteria)
[35] = tested on: Aeromonas sp.; assay: Antibacterial activity against Aeromonas sp. assessed as growth inhibition at 0.016 ug/ml by broth microdilution method; assay type: functional
[36] = tested on: Aeromonas sp.; assay: Antibacterial activity against Aeromonas sp. assessed as growth inhibition at 0.03 ug/ml by broth microdilution method; assay type: functional
[37] = tested on: Aeromonas sp.; assay: Antibacterial activity against Aeromonas sp. assessed as growth inhibition at 0.25 ug/ml by broth microdilution method; assay type: functional
[38] = tested on: Aeromonas sp.; assay: Antibacterial activity against Aeromonas sp. assessed as growth inhibition at 1 ug/ml by broth microdilution method; assay type: functional
[39] = tested on: Aeromonas sp.; assay: Antibacterial activity against Aeromonas sp. assessed as growth inhibition at 2 ug/ml by broth microdilution method; assay type: functional
[40] = tested on: Aeromonas sp.; assay: Antibacterial activity against Aeromonas sp. assessed as growth inhibition at =>4 ug/ml by broth microdilution method; assay type: functional
[41] = tested on: Vibrio sp.; assay: Antibacterial activity against Vibrio sp. assessed as growth inhibition at 0.016 ug/ml by broth microdilution method; assay type: functional
[42] = tested on: Campylobacter sp.; assay: Antibacterial activity against Campylobacter sp. assessed as growth inhibition at =<0.002 ug/ml by broth microdilution method; assay type: functional
[43] = tested on: Campylobacter sp.; assay: Antibacterial activity against Campylobacter sp. assessed as growth inhibition at 0.004 ug/ml by broth microdilution method; assay type: functional

CC1Sc2c(C(=O)O)c(=O)c3cc(F)c(N4CCNCC4)cc3n21 (centres undefined) [ULIFLOXACIN]
inhibition at 1 µg/mL [1]: 84% | Activity [2]: 97% | Activity [3]: 0% | Activity [4]: 0% | MIC50 [5]: 4 ng/mL (≈ 0.0114 µM) | MIC90 [5]: 8 ng/mL (≈ 0.0229 µM) | Activity [6]: 0% | Activity [7]: 100% | Activity [8]: 2% | Activity [9]: 98% | Activity [10]: 100% | Activity [11]: 0% | Activity [12]: 100% | Activity [13]: 0% | Activity [14]: 0% | Activity [15]: 100% | Activity [16]: 100% | Activity [17]: 14.7% | MIC [18]: 4 ng/mL (≈ 0.0114 µM) | MIC50 [18]: 4 ng/mL (≈ 0.0114 µM) | MIC90 [18]: 8 ng/mL (≈ 0.0229 µM) | MIC ([18]; Escherichia coli, read-out: MIC): 4 ng/mL (≈ 0.0114 µM) | MIC50 ([18]; Escherichia coli, read-out: MIC50): 4 ng/mL (≈ 0.0114 µM) | MIC90 ([18]; Escherichia coli, read-out: MIC90): 8 ng/mL (≈ 0.0229 µM) | Activity [19]: 100% | Activity [20]: 4.8% | Activity [21]: 90% | inhibition (INH) [22]: 0% | inhibition at 0.06 µg/mL [23]: 97% | inhibition at 0.12 µg/mL [24]: 97% | inhibition at 0.5 µg/mL [25]: 97% | inhibition at 1 µg/mL [26]: 97% | inhibition at 2 µg/mL [27]: 97% | inhibition at 0.004 µg/mL [28]: 62% | inhibition at 0.016 µg/mL [29]: 96% | inhibition at 0.06 µg/mL [30]: 99% | inhibition at 0.12 µg/mL [31]: 100% | inhibition (INH) [32]: 0% | inhibition at 0.004 µg/mL [33]: 0% | inhibition at 0.008 µg/mL [34]: 56% | inhibition at 0.016 µg/mL [35]: 78% | inhibition at 0.03 µg/mL [36]: 87% | inhibition at 0.25 µg/mL [37]: 95% | inhibition at 1 µg/mL [38]: 98% | inhibition at 2 µg/mL [39]: 98% | inhibition (INH) [40]: 100% | inhibition at 0.016 µg/mL [41]: 65% | inhibition (INH) [42]: 0% | inhibition at 0.004 µg/mL [43]: 0%
